Data taken from the supplement of paper PMC11451515.

System: NOMO1
Assay: cell viability relative to DMSO control; higher = less cytotoxic
Conditions: 48 h
Outline: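 NOMO1 or SEM cells were plated at 500 cells/well and P12-Ichikawa cells at 1000 cells/well in 1536-well plates (5 μl), after each leukemia line had been adapted for at least four passages in each medium. Pin dosing delivered library compounds in DMSO at 11 threefold concentrations, 47 μM to 0.79 nM. CellTiter-Glo One luminescence was read after 48 h at 37°C. Viability is reported as a per-plate percentage of DMSO wells, with cell-free wells as background.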

[1] = HPLM + 10% dialyzed FBS, 0.000781 µM
[2] = HPLM + 10% dialyzed FBS, 0.00234 µM
[3] = HPLM + 10% dialyzed FBS, 0.00702 µM
[4] = HPLM + 10% dialyzed FBS, 0.0211 µM
[5] = HPLM + 10% dialyzed FBS, 0.0632 µM
[6] = HPLM + 10% dialyzed FBS, 0.19 µM
[7] = HPLM + 10% dialyzed FBS, 0.569 µM
[8] = HPLM + 10% dialyzed FBS, 1.71 µM
[9] = HPLM + 10% dialyzed FBS, 5.12 µM
[10] = HPLM + 10% dialyzed FBS, 15.4 µM
[11] = HPLM + 10% dialyzed FBS, 46.1 µM
[12] = RPMI 5 mM glucose + 10% FBS, 0.000781 µM
[13] = RPMI 5 mM glucose + 10% FBS, 0.00234 µM
[14] = RPMI 5 mM glucose + 10% FBS, 0.00702 µM
[15] = RPMI 5 mM glucose + 10% FBS, 0.0211 µM
[16] = RPMI 5 mM glucose + 10% FBS, 0.0632 µM
[17] = RPMI 5 mM glucose + 10% FBS, 0.19 µM
[18] = RPMI 5 mM glucose + 10% FBS, 0.569 µM
[19] = RPMI 5 mM glucose + 10% FBS, 1.71 µM
[20] = RPMI 5 mM glucose + 10% FBS, 5.12 µM
[21] = RPMI 5 mM glucose + 10% FBS, 15.4 µM
[22] = RPMI 5 mM glucose + 10% FBS, 46.1 µM
[23] = RPMI 5 mM glucose + 10% dialyzed FBS, 0.000781 µM
[24] = RPMI 5 mM glucose + 10% dialyzed FBS, 0.00234 µM
[25] = RPMI 5 mM glucose + 10% dialyzed FBS, 0.00702 µM
[26] = RPMI 5 mM glucose + 10% dialyzed FBS, 0.0211 µM
[27] = RPMI 5 mM glucose + 10% dialyzed FBS, 0.0632 µM
[28] = RPMI 5 mM glucose + 10% dialyzed FBS, 0.19 µM
[29] = RPMI 5 mM glucose + 10% dialyzed FBS, 0.569 µM
[30] = RPMI 5 mM glucose + 10% dialyzed FBS, 1.71 µM
[31] = RPMI 5 mM glucose + 10% dialyzed FBS, 5.12 µM
[32] = RPMI 5 mM glucose + 10% dialyzed FBS, 15.4 µM
[33] = RPMI 5 mM glucose + 10% dialyzed FBS, 46.1 µM

Row | Structure (SMILES) | cell viability [1] | cell viability [2] | cell viability [3] | cell viability [4] | cell viability [5] | cell viability [6] | cell viability [7] | cell viability [8] | cell viability [9] | cell viability [10] | cell viability [11] | cell viability [12] | cell viability [13] | cell viability [14] | cell viability [15] | cell viability [16] | cell viability [17] | cell viability [18] | cell viability [19] | cell viability [20] | cell viability [21] | cell viability [22] | cell viability [23] | cell viability [24] | cell viability [25] | cell viability [26] | cell viability [27] | cell viability [28] | cell viability [29] | cell viability [30] | cell viability [31] | cell viability [32] | cell viability [33]
1 | CC[C@H]1/C=C\C=C/C[C@@H](C)[C@H](O)[C@@](C)(O)C(=O)[C@@H](C)[C@H](O)[C@@H](C)C(=O)[C@@H](C)[C@H](O)[C@@H](C)/C=C/C(=O)O[C@@H]2[C@H](C)[C@H](CC1)O[C@]1(CC[C@H](C)[C@H](C[C@@H](C)O)O1)[C@H]2C | 74.4% | 89.4% | 105% | 117% | 103% | 106% | 108% | 55.4% | 40.7% | 31.6% | 5.57% | 83% | 86.4% | 87.1% | 88.9% | 82.7% | 104% | 92.7% | 44.7% | 39.1% | 37.6% | 4.56% | 81.4% | 89.2% | 92.9% | 83.9% | 75.1% | 94.4% | 79.7% | 54.2% | 39.9% | 31.6% | 4.92%
2 | C\C1=C\C(=O)C2=C(C=CC=C2)C1=O | 100% | 122% | 117% | 134% | 132% | 126% | 126% | 134% | 128% | 131% | 127% | 116% | 108% | 120% | 125% | 133% | 133% | 137% | 124% | 129% | 125% | 140% | 119% | 117% | 131% | 130% | 140% | 128% | 135% | 151% | 128% | 148% | 134%
3 | CCCCNc1cc(C(=O)O)cc([S+](N)(=O)[O-])c1Oc1ccccc1 | – | – | – | – | – | – | – | – | – | – | – | 118% | 113% | 128% | 127% | 129% | 115% | 124% | 120% | 136% | 146% | 135% | – | – | – | – | – | – | – | – | – | – | –
4 | CC(C)Oc1cc(Nc2nc(N[C@@H](C)c3ccc(F)cn3)ncc2Cl)n[nH]1 | 104% | 113% | 120% | 114% | 99% | 96.8% | 127% | 94.1% | 101% | 108% | 92.4% | 107% | 100% | 111% | 110% | 104% | 104% | 116% | 53.7% | 60.4% | 68% | 72.6% | 101% | 109% | 115% | 100% | 134% | 110% | 110% | 61.6% | 57.6% | 68.9% | 85.9%
5 | CC(=O)N1CCN(c2ccc(OC[C@H]3CO[C@](Cn4ccnc4)(c4ccc(Cl)cc4Cl)O3)cc2)CC1 | 126% | 120% | 123% | 118% | 117% | 102% | 129% | 103% | 98.8% | 96.3% | 80.4% | 113% | 111% | 121% | 114% | 114% | 107% | 119% | 106% | 97.9% | 98.2% | 93.6% | 111% | 100% | 120% | 127% | 127% | 113% | 103% | 113% | 126% | 110% | 89.3%
6 | O=C(CO)N1CCC(c2n[nH]c(-c3ccc(Cl)cc3)c2-c2ccncn2)CC1 | 117% | 121% | 134% | 129% | 117% | 129% | 120% | 117% | 123% | 34.6% | 78.2% | 111% | 115% | 118% | 113% | 121% | 111% | 113% | 115% | 119% | 57.3% | 96.3% | 113% | 123% | 116% | 105% | 123% | 111% | 109% | 119% | 113% | 41.6% | 92.8%
7 | CC\1=C(C(=O)N(\C=C1)C2=CC=C(C=C2)C3=NC=CO3)/C4=CC5=CN=C(N)N=C5C=C4 | 98.8% | 107% | 126% | 112% | 108% | 117% | 122% | 122% | 123% | 108% | 94.9% | 97% | 103% | 96.1% | 104% | 112% | 116% | 114% | 107% | 124% | 113% | 100% | 99.1% | 89.6% | 103% | 119% | 123% | 107% | 108% | 101% | 107% | 117% | 90%
8 | CC(C)(C)c1cc(C=C(C#N)C#N)cc(Br)c1O | 86% | 114% | 124% | 112% | 112% | 122% | 122% | 113% | 113% | 103% | 94.9% | 89.9% | 115% | 116% | 126% | 103% | 106% | 121% | 132% | 107% | 109% | 100% | 84.5% | 101% | 105% | 103% | 105% | 108% | 125% | 115% | 116% | 116% | 103%
9 | CC(C)(C)C(=O)Oc1ccc([S+](=O)([O-])Nc2ccccc2C(=O)NCC(=O)O)cc1 | 115% | 106% | 139% | 122% | 117% | 110% | 109% | 113% | 129% | 122% | 134% | 107% | 102% | 99.7% | 98.4% | 112% | 108% | 114% | 117% | 104% | 109% | 129% | 110% | 117% | 113% | 122% | 109% | 122% | 119% | 116% | 129% | 131% | 124%
10 | CCOC(=O)N1CCN(/[N+]([O-])=N/Oc2ccc([N+](=O)[O-])cc2[N+](=O)[O-])CC1 | 85.1% | 102% | 102% | 106% | 117% | 101% | 109% | 110% | 97.1% | 98.5% | 50.8% | 80% | 100% | 89.3% | 94.7% | 89.2% | 92.9% | 94.1% | 98.5% | 102% | 87% | 38.5% | 82.1% | 87.5% | 80.1% | 86.8% | 99.7% | 96.6% | 86.7% | 89.5% | 89.2% | 89.6% | 41.9%
11 | COc1cc(O)c2c(c1)C1OC1C[C@H](O)[C@H](O)C(=O)/C=C\C[C@H](C)OC2=O (stereo partly drawn) | 92.7% | 118% | 104% | 111% | 126% | 120% | 122% | 125% | 108% | 31.3% | 12.5% | 109% | 99.9% | 99% | 120% | 105% | 96.7% | 121% | 103% | 97.8% | 50.4% | 13.7% | 93.5% | 98% | 105% | 109% | 110% | 114% | 113% | 100% | 94.7% | 50.7% | 17.5%
12 | CC(=O)Nc1ccc([C@H](C)C(=O)Nc2ncc(C(C)C)s2)cc1 | 109% | 123% | 97.2% | 99% | 106% | 103% | 119% | 96.8% | 79.1% | 6.43% | 4.34% | 88.4% | 99.9% | 84.9% | 90.8% | 110% | 93.6% | 104% | 84.5% | 44.6% | 9.84% | 4.44% | 104% | 93.5% | 96.3% | 100% | 95.2% | 92% | 95.4% | 104% | 68.2% | 8.22% | 4.09%
13 | Cc1c(Cn2c(C)nc3c(C(=O)O)cc(N4CCOCC4)cc32)cccc1C(F)(F)F | 98.3% | 114% | 121% | 125% | 115% | 120% | 106% | 121% | 105% | 95.8% | 16.3% | 87.2% | 95.4% | 101% | 108% | 103% | 97.1% | 108% | 116% | 112% | 101% | 75% | 89.2% | 112% | 105% | 117% | 98.9% | 101% | 111% | 112% | 96.6% | 102% | 85.8%
14 | CC1(C)OC2CC3C4CC(F)C/5=C/C(=O)/C=C\C5(C)C4C(O)CC3(C)[C@@]2(O1)C(=O)CO (stereo partly drawn) | 105% | 111% | 118% | 119% | 126% | 117% | 110% | 124% | 123% | 124% | 119% | 113% | 108% | 102% | 115% | 121% | 127% | 116% | 112% | 117% | 119% | 119% | 124% | 113% | 125% | 122% | 123% | 150% | 123% | 138% | 135% | 119% | 132%
15 | NC(CO)(CO)CCc1ccc(Sc2cccc(OCc3ccccc3)c2)cc1Cl | 108% | 107% | 118% | 118% | 124% | 129% | 111% | 121% | 63.1% | 38.6% | 8.35% | 104% | 103% | 116% | 122% | 107% | 107% | 117% | 115% | 120% | 40.1% | 5.44% | 93.5% | 103% | 99.1% | 107% | 114% | 109% | 105% | 115% | 113% | 104% | 5.71%
